Data reported in ChEMBL document CHEMBL3431459, “Roche carnitine palmitoyltransferase modulator screening data (supplementary data associated with the publication CHEMBL2216752)”.
In brackets after ≈: the same amount, converted by molar mass.

How the values were obtained:
[1] = SUPPLEMENTARY: Lyophilisation Solubility Assay (LYSA); type: physicochemical; conditions: read-out: Kinetic_solubility
[2] = biological target: T1, Carnitine O-palmitoyltransferase 1, muscle isoform (Homo sapiens, UniProt Q92523); assay: SUPPLEMENTARY: Inhibition of Carnitine palmitoyltransferase 1, muscle isoform; design: species or system Muscle tissue
T1 sequence (Q92523 whole entry): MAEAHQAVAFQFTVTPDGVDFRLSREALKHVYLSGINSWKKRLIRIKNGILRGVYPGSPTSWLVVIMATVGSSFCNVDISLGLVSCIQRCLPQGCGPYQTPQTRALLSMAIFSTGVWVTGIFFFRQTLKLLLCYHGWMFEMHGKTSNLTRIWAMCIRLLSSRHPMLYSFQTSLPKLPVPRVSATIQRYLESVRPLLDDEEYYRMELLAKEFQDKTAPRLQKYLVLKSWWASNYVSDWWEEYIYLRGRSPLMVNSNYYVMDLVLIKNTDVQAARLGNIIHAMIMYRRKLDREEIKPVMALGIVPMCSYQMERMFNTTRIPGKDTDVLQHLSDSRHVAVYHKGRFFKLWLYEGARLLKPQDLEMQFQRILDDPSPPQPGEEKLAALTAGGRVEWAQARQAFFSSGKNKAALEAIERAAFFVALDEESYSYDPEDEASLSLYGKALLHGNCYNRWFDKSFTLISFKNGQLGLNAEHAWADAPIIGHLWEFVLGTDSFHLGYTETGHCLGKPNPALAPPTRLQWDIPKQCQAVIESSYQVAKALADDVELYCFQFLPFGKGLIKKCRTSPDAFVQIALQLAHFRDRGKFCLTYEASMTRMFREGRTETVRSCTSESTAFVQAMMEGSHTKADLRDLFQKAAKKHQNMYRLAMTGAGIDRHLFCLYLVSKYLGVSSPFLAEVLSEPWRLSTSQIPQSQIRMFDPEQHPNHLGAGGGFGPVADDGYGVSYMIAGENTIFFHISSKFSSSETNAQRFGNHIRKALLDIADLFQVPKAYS

[3] = SUPPLEMENTARY: Lipophilicity (log D) Determination by high-throughput shake-flask; type: physicochemical; conditions: octanol/water
[4] = biological target: T2, Carnitine O-palmitoyltransferase 2, mitochondrial (Homo sapiens, UniProt P23786); assay: (§1) SUPPLEMENTARY: Inhibition of Carnitine palmitoyltransferase 2
T2 sequence (P23786 whole entry): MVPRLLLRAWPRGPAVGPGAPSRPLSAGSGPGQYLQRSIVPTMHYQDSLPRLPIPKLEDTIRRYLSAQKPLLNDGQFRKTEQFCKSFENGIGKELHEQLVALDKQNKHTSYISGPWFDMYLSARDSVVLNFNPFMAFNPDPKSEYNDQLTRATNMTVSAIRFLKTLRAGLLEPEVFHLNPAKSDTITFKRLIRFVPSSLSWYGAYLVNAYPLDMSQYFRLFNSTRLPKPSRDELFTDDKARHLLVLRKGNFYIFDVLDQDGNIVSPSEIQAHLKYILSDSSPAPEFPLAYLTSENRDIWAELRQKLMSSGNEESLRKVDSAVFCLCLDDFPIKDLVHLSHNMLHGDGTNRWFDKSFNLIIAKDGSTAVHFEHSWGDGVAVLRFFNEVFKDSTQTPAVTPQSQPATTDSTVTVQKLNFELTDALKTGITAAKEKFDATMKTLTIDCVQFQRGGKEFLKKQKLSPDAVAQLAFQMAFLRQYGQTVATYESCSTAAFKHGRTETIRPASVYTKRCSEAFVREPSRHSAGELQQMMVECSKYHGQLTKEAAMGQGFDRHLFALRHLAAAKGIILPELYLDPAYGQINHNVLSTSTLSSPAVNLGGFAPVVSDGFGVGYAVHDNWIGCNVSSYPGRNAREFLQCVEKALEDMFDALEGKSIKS

[5] = biological target: T3, Carnitine O-palmitoyltransferase 2, mitochondrial (Rattus norvegicus, UniProt P18886); assay: as §1
T3 sequence (P18886 whole entry): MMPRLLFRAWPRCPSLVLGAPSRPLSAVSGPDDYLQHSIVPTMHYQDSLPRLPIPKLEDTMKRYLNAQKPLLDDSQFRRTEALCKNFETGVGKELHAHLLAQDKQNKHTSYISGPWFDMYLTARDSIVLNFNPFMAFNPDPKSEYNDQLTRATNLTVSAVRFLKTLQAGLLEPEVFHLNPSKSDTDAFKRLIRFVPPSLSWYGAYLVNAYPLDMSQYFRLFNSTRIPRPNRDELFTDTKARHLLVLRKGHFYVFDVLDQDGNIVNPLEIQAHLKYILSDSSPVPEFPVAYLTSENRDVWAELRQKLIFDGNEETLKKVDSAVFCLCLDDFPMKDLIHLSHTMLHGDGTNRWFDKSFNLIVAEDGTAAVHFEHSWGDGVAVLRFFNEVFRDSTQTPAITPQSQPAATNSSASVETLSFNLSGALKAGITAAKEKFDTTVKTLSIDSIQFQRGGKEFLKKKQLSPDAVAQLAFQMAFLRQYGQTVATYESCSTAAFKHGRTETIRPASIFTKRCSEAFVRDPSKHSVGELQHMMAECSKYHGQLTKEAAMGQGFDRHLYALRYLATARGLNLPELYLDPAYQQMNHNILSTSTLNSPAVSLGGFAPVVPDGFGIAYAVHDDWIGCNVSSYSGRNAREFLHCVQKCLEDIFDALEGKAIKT

[6] = SUPPLEMENTARY: PAMPA permeability assay; type: physicochemical; conditions: read-out: Permeability
[7] = biological target: T4, Carnitine O-palmitoyltransferase 1, liver isoform (Rattus norvegicus, UniProt P32198); assay: (§2) SUPPLEMENTARY: Inhibition of Carnitine palmitoyltransferase 1, liver isoform
T4 sequence (P32198 whole entry): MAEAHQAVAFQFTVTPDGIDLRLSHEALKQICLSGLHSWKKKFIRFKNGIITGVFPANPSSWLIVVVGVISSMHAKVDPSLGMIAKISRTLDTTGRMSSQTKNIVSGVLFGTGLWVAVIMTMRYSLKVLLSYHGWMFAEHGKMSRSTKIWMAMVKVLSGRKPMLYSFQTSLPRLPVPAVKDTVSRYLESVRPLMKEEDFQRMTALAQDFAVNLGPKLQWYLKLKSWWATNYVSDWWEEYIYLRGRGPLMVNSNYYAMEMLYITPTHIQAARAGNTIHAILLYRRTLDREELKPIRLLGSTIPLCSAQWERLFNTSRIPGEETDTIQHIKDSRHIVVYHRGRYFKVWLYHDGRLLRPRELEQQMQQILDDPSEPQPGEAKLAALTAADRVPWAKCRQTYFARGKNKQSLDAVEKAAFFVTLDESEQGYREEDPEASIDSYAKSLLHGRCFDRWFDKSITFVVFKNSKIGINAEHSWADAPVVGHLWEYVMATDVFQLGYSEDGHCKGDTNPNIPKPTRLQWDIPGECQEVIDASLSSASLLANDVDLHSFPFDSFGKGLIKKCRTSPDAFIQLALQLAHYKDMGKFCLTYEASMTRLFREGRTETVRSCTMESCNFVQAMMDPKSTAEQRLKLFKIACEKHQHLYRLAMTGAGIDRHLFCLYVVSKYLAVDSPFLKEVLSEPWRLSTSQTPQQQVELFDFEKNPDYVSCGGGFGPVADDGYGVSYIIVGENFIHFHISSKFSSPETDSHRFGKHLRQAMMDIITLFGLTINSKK

[8] = biological target: T5, Carnitine O-palmitoyltransferase 1, liver isoform (Homo sapiens, UniProt P50416); assay: as §2
T5 sequence (P50416 whole entry): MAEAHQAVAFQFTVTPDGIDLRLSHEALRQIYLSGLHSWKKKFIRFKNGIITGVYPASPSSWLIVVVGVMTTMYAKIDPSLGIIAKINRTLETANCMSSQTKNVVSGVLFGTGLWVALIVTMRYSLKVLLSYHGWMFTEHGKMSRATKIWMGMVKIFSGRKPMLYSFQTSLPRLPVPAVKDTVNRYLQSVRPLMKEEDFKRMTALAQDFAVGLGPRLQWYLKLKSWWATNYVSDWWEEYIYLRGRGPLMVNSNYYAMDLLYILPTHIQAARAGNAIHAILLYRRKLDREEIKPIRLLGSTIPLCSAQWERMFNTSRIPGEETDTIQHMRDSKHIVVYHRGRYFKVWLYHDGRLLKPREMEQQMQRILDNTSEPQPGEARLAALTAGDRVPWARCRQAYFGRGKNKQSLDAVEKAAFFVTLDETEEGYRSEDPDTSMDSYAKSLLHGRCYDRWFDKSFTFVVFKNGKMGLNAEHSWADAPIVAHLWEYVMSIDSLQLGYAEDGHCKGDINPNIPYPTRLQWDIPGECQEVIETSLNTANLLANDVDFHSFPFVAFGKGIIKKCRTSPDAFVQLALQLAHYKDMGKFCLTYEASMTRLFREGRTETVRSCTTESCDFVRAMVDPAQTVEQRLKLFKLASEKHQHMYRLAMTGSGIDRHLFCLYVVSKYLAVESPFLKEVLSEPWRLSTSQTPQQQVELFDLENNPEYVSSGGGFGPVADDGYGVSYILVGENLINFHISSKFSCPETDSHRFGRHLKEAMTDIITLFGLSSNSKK

Row | SMILES | solubility kinetic [1] | IC50 [2] | logD [3] | IC50 [4] | IC50 [5] | Papp [6] | IC50 [7] | IC50 [8]
1 | O=C1CCN1c1cccc(-c2n[nH]c([C@H]3CCCCN3C(=O)COc3ccccc3)n2)c1 | 33 µg/mL (≈ 76.5 µM) | > 100000 nM | 2.9 | 44200 nM | 74700 nM | 2 ×10⁻⁶ cm/s | 316 nM | 114 nM
2 | CCN(c1cc(C(=O)Nc2ncc(CC(=O)O)s2)cc2c1OCO2)S(=O)(=O)c1cc(Cl)ccc1OC | 144 µg/mL (≈ 260 µM) | 620 nM | 2.74 | > 100000 nM | > 100000 nM | 3.22 ×10⁻⁶ cm/s | 98.9 nM | 88.4 nM
3 | COc1ccc(Cl)cc1S(=O)(=O)N1CCCCc2ccc(C(=O)Nc3nc(CC(=O)O)cs3)cc21 | 216 µg/mL (≈ 403 µM) | 602 nM | 0.54 | > 100000 nM | > 100000 nM | 3.46 ×10⁻⁶ cm/s | 17 nM | 47.2 nM
4 | COc1ccc(Cl)cc1S(=O)(=O)n1ccc2ccc(C(=O)Nc3ccc(CC(=O)O)cc3)cc21 | 61 µg/mL (≈ 122 µM) | 2210 nM | 1.1 | > 100000 nM | > 100000 nM | 1.98 ×10⁻⁶ cm/s | 82.8 nM | 206 nM
5 | CN1CCN(C(=O)COc2ccccc2)[C@@H](c2nc(-c3cccc(C(F)(F)F)c3)n[nH]2)C1 | 81 µg/mL (≈ 182 µM) | > 100000 nM | 3.19 | 94600 nM | > 100000 nM | 2.31 ×10⁻⁶ cm/s | 54.7 nM | 37 nM
6 | Nc1cccc(-c2n[nH]c([C@H]3CCCCN3C(=O)COc3ccccc3)n2)c1 | 71 µg/mL (≈ 188 µM) | > 100000 nM | 2.42 | > 100000 nM | > 100000 nM | 5.37 ×10⁻⁶ cm/s | 815 nM | 109 nM
7 | COc1ccc(C)cc1S(=O)(=O)N1CCc2ccc(C(=O)Nc3ccc(CC(=O)O)cc3)cc21 | 93 µg/mL (≈ 194 µM) | 2210 nM | 0.11 | > 100000 nM | > 100000 nM | 2.21 ×10⁻⁶ cm/s | 174 nM | 237 nM
8 | O=C(O)c1cccc(-c2noc([C@H]3CCCCN3C(=O)COc3ccccc3)n2)c1 | > 461 µg/mL | 93600 nM | 0.99 | > 100000 nM | > 100000 nM | 1.92 ×10⁻⁶ cm/s | 1490 nM | 93.5 nM
9 | COc1ccc(Cl)cc1CN1C(=O)OCc2ccc(C(=O)Nc3nc(CC(=O)O)cs3)cc21 | 50 µg/mL (≈ 102 µM) | 21900 nM | 0.06 | > 100000 nM | > 100000 nM | 1.7 ×10⁻⁶ cm/s | 203 nM | 132 nM
10 | COc1ccc(Cl)cc1S(=O)(=O)N1CCSc2ccc(C(=O)Nc3ccc(C(=O)O)c(F)c3)cc21 | 7 µg/mL (≈ 13 µM) | 400 nM | 2.6 | 1990 nM | 9040 nM | 2.57 ×10⁻⁶ cm/s | 70.5 nM | 84 nM
11 | COc1ccc(Cl)cc1S(=O)(=O)N(C)c1cc(C(=O)Nc2ccc(C(=O)O)cc2)cc2c1OCCO2 | > 710 µg/mL | 4050 nM | 0.58 | 20700 nM | 29000 nM | 2.54 ×10⁻⁶ cm/s | 249 nM | 219 nM
12 | CCOC(=O)c1cncc(-c2noc([C@H]3CCCCN3C(=O)COc3ccccc3)n2)c1 | 9 µg/mL (≈ 20.6 µM) | > 100000 nM | 3.38 | 24300 nM | > 100000 nM | 1.56 ×10⁻⁶ cm/s | 399 nM | 78.6 nM
13 | CCOc1ccc2c(c1)CN(C(=O)[C@H]1CCCCN1C(=O)COc1ccccc1)C2 | 30 µg/mL (≈ 73.4 µM) | > 100000 nM | 3.23 | 468 nM | 539 nM | 5.52 ×10⁻⁶ cm/s | 232 nM | 161 nM
14 | COc1ccc(Cl)cc1S(=O)(=O)N1CCc2ccc(C(=O)Nc3ccc(C(=O)O)c(Cl)c3)cc21 | > 579 µg/mL | 755 nM | 0.26 | 966 nM | 3410 nM | 1.2 ×10⁻⁶ cm/s | 92.6 nM | 132 nM
